One substance from PMC8401550, “Structural Characterization of a Macrocyclic Peptide Modulator of the PD-1/PD-L1 Immune Checkpoint Axis” (Molecules, 2021) can be followed below.

For this test, the system named is PD-1/PD-L1 interaction, Jurkat cells overexpressing PD-1 with CHO-K1 cells overexpressing TCR activator and PD-L1. Description: Cell-surface PD-L1/PD-1 immune checkpoint interaction assay (NFAT-luciferase reporter). Format: cell-based. The settings on record: control antibody; increase in luciferase reporter; fit of Hill equation; mean ± SD from three independent experiments. The protocol:
CHO-K1 expressing the TCR activator and PD-L1 and Jurkat T cells carrying an NFAT-dependent luciferase gene and overexpressing PD-1 were obtained from Promega. The cells were cultured in RPMI 1640 medium supplemented with 10% FBS with hygromycin B (50 µg/mL) and G418 (250 µg/mL) at 37 °C with 5% CO2.
24 h before the experiment, the CHO-K1 cells were seeded on a 96-well plate in an amount of 10,000 cells/well. 2.5-fold serial dilutions of p104 were prepared in DMSO followed by 1000× dilution in the assay buffer (RPMI 1640, 1% FBS). The culture medium was replaced with the assay buffer containing 0.02–250 µM of p104. The Jurkat cells in the amount of 50,000 cells/well were added and co-cultured for 3 h in standard conditions. Luminescence was determined using Bio-Glo Assay reagent (Promega, Madison, WI, USA) following manufacturer protocol. Data were normalized at vehicle-treated control.
Background: Reporter assays use an easily measured gene product as a stand-in for the process of interest.

On to “Atezolizumab: FDA-approved therapeutic monoclonal antibody targeting PD-L1”, for which the EC50 (commonly the concentration needed to bring the measured effect to its halfway point) was 3.4 ± 0.2 nM.
